From US20160175802A1, “METHOD FOR MAKING A GAS FROM AN AQUEOUS FLUID,PRODUCT OF THE METHOD, AND APPARATUS THERFOR” (priority 2007, published 2016)

Tests used:
[1] = test system: goldfish; experiment: Fish growth in home aquariums; type: in vivo; settings: SG Gas bubbled into aquarium for thirty days vs air
Description: Fish Growth: Two home aquariums were used to hold two respective groups of goldfish. SG Gas was bubbled into one aquarium and the second with air for a period of thirty days.

[2] = pH test; type: physicochemical; settings: distilled water infused with SG Gas (distilled water pH 6.8)
[3] = Total Dissolved Solids after infusion; type: physicochemical; settings: after infusion of SG Gas into distilled water for approximately 11 minutes (start 0.33 ppm)
Description: The resulting ionized or polarized water (“SG Gas-infused Water”) clings longer to a magnet when compared to that of regular water. Absorption over time or saturation graphs to monitor changes in the water properties infused with SG Gas including capacitance levels may be prepared. […] Other measurement: Total Dissolved Solids (TDS) dropped from a start of 0.33 ppm in untreated distilled water to a finish of 0.17 ppm after infusion of SG Gas into distilled water for a period of approximately 11 minutes. A Fluke 189True RMS Multimeter was used to measure drop in capacitance.

[4] = Storage of SG Gas in water; type: physicochemical; settings: polarized water with SG Gas treatment
Description: Storage of SG Gas in Water: The resulting polarized water with SG Gas treatment remains stable and can be stored for 2 years or more. The actual maximum storage time has yet to be observed but in theory, SG Gas should remain permanently stable in the water.

[5] = SG Gas under pressure; type: physicochemical
Description: In an exemplary procedure for compression, SG Gas is discharged from the apparatus into a hose with a compressor attached. We use a Whirlwind Compressor, Model 2200-2 HPE, manufactured by High Pressure Eng. Co. Inc. A canister with pressure gauges is used to fill the chamber with SG Gas, using a hose to transport the SG Gas from the apparatus and compressor into the canister. We use an empty oxygen tank that has been vacuumed to remove any residual oxygen and water. The empty and vacuumed oxygen tank with pressure valve has a manufacturer name of White Martins, ABRE with dimensions of 23″ diameter and 19″ height. SG Gas is placed under pressure in the compression chamber up to and beyond 1,000 psi. for storage of SG Gas.
Analytical Testing and Observations of SG Gas Under pressure Maximum Pressure: SG Gas imploded when pressures exceeded 1,600 psi.
Safe Pressurization: SG Gas remains safe and stable at pressures around 1,000 psi for over 30 days. SG Gas should remain stable under pressure indefinitely, at least for a sufficient period of time to allow said gas to be utilized at time 30-60 days after generation.

pH [2]: 7.6
Total Dissolved Solids (TDS) [3]: 0.17 ppm
storage time over which water remains stable [4]: ≥ 2 years
Maximum Pressure: pressure above which SG Gas imploded [5]: exceeded 1,600 psi
time safe and stable under pressure ([5]; pressures around 1,000 psi): over 30 days
Substance: hydroxyhydrogen [SG Gas]
algae growth in aquarium tank [1]: less algae growth
growth of goldfish compared with air-aerated aquarium [1]: at least 15%
